# Assay results reported in patent US20110236325A1, “METHODS TO TREAT OR PREVENT A SKIN CONDITION USING A NELL1 PEPTIDE” (NellOne Therapeutics, Inc., priority 2010, published 2011).
# Assays:
# [1] = tested on: EFT-400 tissues; assay: Sunburned cell counts in UV-irradiated EpiDerm-FT (EFT-400) skin model tissues, H&E histology; format: cell-based, human
# Method: Packaged tissues were stored at 4° C. overnight and then re-equilibrated in EFT-400-ASY medium overnight prior to the start of experiments. The sample size was n=3 for each treatment group in the gene expression experiments; and n=6 (two independent experiments of n=3) for the sunburned cell counts.
# Treated and untreated tissues were exposed to UV irradiation with 200 mJ/cm^2UVB/29.94 mW/cm^2UVA simulated solar UV light (Honle-500 solar lamp).
# (§1) At the conclusion of the 24 hour post-irradiation period, EFT-400 tissues were fixed in 10% formalin for 2 hours at room temperature (two independent experiments with n=3). Formalin fixed tissues were embedded in paraffin and 6 micron slices were stained with haematoxylin and eosin (H&E).
# [2] = tested on: EFT-400 tissues; assay: Adverse effects of treatment on EFT-400 tissues (H&E stained histology); settings: 50 μM in the basolateral medium
# Method: as §1
# [3] = tested on: EFT-400 tissues; assay: Gene expression by quantitative PCR custom array in EFT-400 tissues with or without UV irradiation; settings: for AVG Ct ACTB (housekeeping gene) / AVG Ct AQP3 / AVG Ct BCL2L1 / AVG Ct COL1A1 / AVG Ct COL4A2 / AVG Ct COL5A1 / AVG Ct COL6A1 / AVG Ct COL6A2 / AVG Ct COL7A1 / AVG Ct COL8A1 / AVG Ct COL11A1 / AVG Ct COL12A1 / AVG Ct COL14A1 / AVG Ct COL15A1 / AVG Ct COL16A1 / AVG Ct CYP2E1 / AVG Ct DSG1 / AVG Ct ERCC1 / AVG Ct FN1 / AVG Ct GAPDH (housekeeping gene) / AVG Ct GDF15 / AVG Ct GSTM3 / AVG Ct HSPA8 / AVG Ct IL1A / AVG Ct IL1B / AVG Ct IL8 / AVG Ct KAL1 / AVG Ct KRT16 / AVG Ct LAMA1 / AVG Ct LAMA2 / AVG Ct LAMA3 / AVG Ct LAMA5 / AVG Ct LAMB1 / AVG Ct LAMB3 / AVG Ct LAMC1 / AVG Ct MMP1 / AVG Ct MMP2 / AVG Ct MT2A / AVG Ct PCNA / AVG Ct RPL13A (housekeeping gene) / AVG Ct SIRT1 / AVG Ct TGFBI / AVG Ct THBS3 / AVG Ct TNC / AVG Ct VTN: 50 uM Genistein
# Method: EpiDerm-FT™ (EFT-400) tissues were produced and packaged in the MatTek Corporation GMP tissue culture production laboratories following standard procedures. Packaged tissues were stored at 4° C. overnight and then re-equilibrated in EFT-400-ASY medium overnight prior to the start of experiments. The sample size was n=3 for each treatment group in the gene expression experiments; and n=6 (two independent experiments of n=3) for the sunburned cell counts.
# Total RNA was isolated from the EFT-400 tissues (RNAqueous kit, Ambion) (n=3) and utilized for gene expression analysis by quantitative PCR on an SABioscience custom array containing 42 Human Extracellular Matrix (ECM) and Adhesion Molecules RT^2 Profiler™ PCR Array, stress and toxicity genes whose expression, based on MatTek data, are known to be dramatically altered by UV-protective compounds on UV damaged skin. […] Further, there were three internal control spots on the array that corresponded to human genomic DNA contamination (HGDC), positive PCR control (PPC), and reverse transcription control (RTC).
smiles,measurement,setting,value
"O=c1c(-c2ccc(O)cc2)coc2cc(O)cc(O)c12 [Genistein, reference compound]",sunburned cell formation,"[1]; 50 μM, 200 mJ/cm2 UVB/29.94 mW/cm2 UVA, 24 hour post irradiation",did not decrease sunburned cell formation to the same extent as 100 ng/ml NELL1
same,number of sunburned cells as compared to UV-only controls,"[1]; pre-treatment 30 minutes prior to UV, continued 24 hours post-irradiation",statistically significant reduction in the number of sunburned cells
same,adverse effects on the EFT-400 tissues,[2],did not produce any noteworthy adverse effects
same,"activity in producing the observed effects (sunburned cells, gene expression)","[3]; NELL1 protein at 100 ng/ml, genistein at 50 μM",most active in producing the observed effects
same,AVG Ct ACTB (housekeeping gene),[3]; No UV,18.95
same,AVG Ct AQP3,[3]; No UV,23.75
same,AVG Ct BCL2L1,[3]; No UV,24.35
same,AVG Ct COL1A1,[3]; No UV,18.66
same,AVG Ct COL4A2,[3]; No UV,26.06
same,AVG Ct COL5A1,[3]; No UV,23.19
same,AVG Ct COL6A1,[3]; No UV,19.41
same,AVG Ct COL6A2,[3]; No UV,19.82
same,AVG Ct COL7A1,[3]; No UV,26.3
same,AVG Ct COL8A1,[3]; No UV,28.27
same,AVG Ct COL11A1,[3]; No UV,27.54
same,AVG Ct COL12A1,[3]; No UV,25.19
same,AVG Ct COL14A1,[3]; No UV,26.08
same,AVG Ct COL15A1,[3]; No UV,25.73
same,AVG Ct COL16A1,[3]; No UV,24.6
same,AVG Ct CYP2E1,[3]; No UV,31.05
same,AVG Ct DSG1,[3]; No UV,20.31
same,AVG Ct ERCC1,[3]; No UV,24.94
same,AVG Ct FN1,[3]; No UV,21.06
same,AVG Ct GAPDH (housekeeping gene),[3]; No UV,17.74
same,AVG Ct GDF15,[3]; No UV,27.52
same,AVG Ct GSTM3,[3]; No UV,29.01
same,AVG Ct HSPA8,[3]; No UV,20.53
same,AVG Ct IL1A,[3]; No UV,25.92
same,AVG Ct IL1B,[3]; No UV,29.03
same,AVG Ct IL8,[3]; No UV,23.12
same,AVG Ct KAL1,[3]; No UV,31.59
same,AVG Ct KRT16,[3]; No UV,17.11
same,AVG Ct LAMA1,[3]; No UV,29.54
same,AVG Ct LAMA2,[3]; No UV,25.35
same,AVG Ct LAMA3,[3]; No UV,24.25
same,AVG Ct LAMA5,[3]; No UV,27.39
same,AVG Ct LAMB1,[3]; No UV,23.3
same,AVG Ct LAMB3,[3]; No UV,25.31
same,AVG Ct LAMC1,[3]; No UV,23.09
same,AVG Ct MMP1,[3]; No UV,22.22
same,AVG Ct MMP2,[3]; No UV,19.2
same,AVG Ct MT2A,[3]; No UV,18.74
same,AVG Ct PCNA,[3]; No UV,23.76
same,AVG Ct RPL13A (housekeeping gene),[3]; No UV,20.65
same,AVG Ct SIRT1,[3]; No UV,26.45
same,AVG Ct TGFBI,[3]; No UV,22.04
same,AVG Ct THBS3,[3]; No UV,29.09
same,AVG Ct TNC,[3]; No UV,22.12
same,AVG Ct VTN,[3]; No UV,32.74
same,expression of IL-1β elevated after UV exposure,[3]; UV-irradiated,decrease in the expression
same,expression of IL-8 elevated after UV exposure,[3]; UV-irradiated,decrease in the expression
same,expression of MMP-1 elevated after UV exposure,[3]; UV-irradiated,decrease in the expression
same,levels of AQP3 RNA after UV exposure,[3]; UV-irradiated,did not have an effect on AQP3 levels
same,reversing the UV-induced effects on gene expression,[3]; UV-irradiated,most effective at reversing the UV-induced effects
same,UV-elevated levels of AQP3,"[3]; UV-irradiated, genistein",did not have the same effect
same,AVG Ct ACTB (housekeeping gene),[3]; UVB + UVA,18.85
same,AVG Ct AQP3,[3]; UVB + UVA,23.01
same,AVG Ct BCL2L1,[3]; UVB + UVA,23.79
same,AVG Ct COL1A1,[3]; UVB + UVA,18.54
same,AVG Ct COL4A2,[3]; UVB + UVA,21.82
same,AVG Ct COL5A1,[3]; UVB + UVA,23.29
same,AVG Ct COL6A1,[3]; UVB + UVA,19.47
same,AVG Ct COL6A2,[3]; UVB + UVA,19.68
same,AVG Ct COL7A1,[3]; UVB + UVA,24.97
same,AVG Ct COL8A1,[3]; UVB + UVA,27.28
same,AVG Ct COL11A1,[3]; UVB + UVA,27.6
same,AVG Ct COL12A1,[3]; UVB + UVA,24.93
same,AVG Ct COL14A1,[3]; UVB + UVA,25.69
same,AVG Ct COL15A1,[3]; UVB + UVA,25.83
same,AVG Ct COL16A1,[3]; UVB + UVA,23.98
same,AVG Ct CYP2E1,[3]; UVB + UVA,29.69
same,AVG Ct DSG1,[3]; UVB + UVA,21.03
same,AVG Ct ERCC1,[3]; UVB + UVA,24.08
same,AVG Ct FN1,[3]; UVB + UVA,20.79
same,AVG Ct GAPDH (housekeeping gene),[3]; UVB + UVA,18.39
same,AVG Ct GDF15,[3]; UVB + UVA,21.74
same,AVG Ct GSTM3,[3]; UVB + UVA,28.37
same,AVG Ct HSPA8,[3]; UVB + UVA,20.14
same,AVG Ct IL1A,[3]; UVB + UVA,25.87
same,AVG Ct IL1B,[3]; UVB + UVA,28.03
same,AVG Ct IL8,[3]; UVB + UVA,20.61
same,AVG Ct KAL1,[3]; UVB + UVA,31.72
same,AVG Ct KRT16,[3]; UVB + UVA,17.92
same,AVG Ct LAMA1,[3]; UVB + UVA,28.49
same,AVG Ct LAMA2,[3]; UVB + UVA,25.42
same,AVG Ct LAMA3,[3]; UVB + UVA,24.01
same,AVG Ct LAMA5,[3]; UVB + UVA,27.71
same,AVG Ct LAMB1,[3]; UVB + UVA,22.85
same,AVG Ct LAMB3,[3]; UVB + UVA,24.92
same,AVG Ct LAMC1,[3]; UVB + UVA,22.69
same,AVG Ct MMP1,[3]; UVB + UVA,20.16
same,AVG Ct MMP2,[3]; UVB + UVA,18.5
same,AVG Ct MT2A,[3]; UVB + UVA,16.4
same,AVG Ct PCNA,[3]; UVB + UVA,23.21
same,AVG Ct RPL13A (housekeeping gene),[3]; UVB + UVA,20.68
same,AVG Ct SIRT1,[3]; UVB + UVA,25.31
same,AVG Ct TGFBI,[3]; UVB + UVA,22.03
same,AVG Ct THBS3,[3]; UVB + UVA,28.97
same,AVG Ct TNC,[3]; UVB + UVA,21.29
same,AVG Ct VTN,[3]; UVB + UVA,32.61
same,"extent of gene expression changes in the absence of UV irradiation, compared to NELL1",[3]; no UV,more changes compared to NELL1
same,gene expression in the absence of UV irradiation,[3]; no UV,some decreases in gene expression
